Series [1] in a line: Cytotoxicity against human U2OS cells assessed as reduction in cell viability after 96 hrs. It is filed as cell-based.
For series [2], the system named is Trypanosoma cruzi. Briefly: Antimicrobial activity against Trypanosoma cruzi Y infected in human U2OS cells after 96 hrs by HCS assay. It is filed as functional, organism-based. To be noted: for pEC50: read-out: EC50; for EC50: read-out: pEC50 (converted).
Series [3] can be described thus: Selectivity index, ratio of CC50 for human U2OS cells to EC50 for Trypanosoma cruzi Y infected in human U2OS cells. It is filed as toxicity, cell-based. To be noted: read-out: Ratio CC50/EC50.

We go through 39 molecules from ChEMBL document CHEMBL4411286, “Discovery of new potent hits against intracellular Trypanosoma cruzi by QSAR-based virtual screening” (Eur J Med Chem, 2019).

Each structure is given as a SMILES string. pEC50: −log10 of the molar value.

In the case of `COc1cccc(-c2noc(-c3cccnc3)n2)c1`, in series [1] (read-out: CC50), the CC50 at 96 h was determined as 106 µM. Besides, in series [2], the pEC50 (in general, the negative decadic logarithm of the EC50, by convention in mol/L) is 4.07 and the EC50 is 85.1 µM. The selectivity ratio in series [3] is 1.2.
Consider `C=CCSc1nc(-c2ccc(OC)cc2)n[nH]1`, for which the CC50 at 96 h in series [1] (read-out: CC50) is 195 µM. Moreover, the pEC50 in series [2] is 3.83. Moreover, in series [3], the selectivity ratio was 1.3.
Consider `Clc1ccc(-c2csc(-c3cccnc3)n2)cc1`, for which the CC50 at 96 h in series [1] (read-out: CC50) was more than 200 µM. For the same molecule, in series [2], the pEC50 is 5.38 and the EC50 is 4.17 µM. The selectivity ratio in series [3] was more than 48.
Consider `Cc1nnc(SCC(=O)N2c3ccccc3CC2C)n1-c1ccccc1` (centres undefined), for which the CC50 at 96 h in series [1] (read-out: CC50) is 155 µM. For the same molecule, in series [2], the pEC50 is 4.43 and the EC50 was 37.2 µM. In addition, the selectivity ratio in series [3] is 4.2.
For the molecule `Cc1ccc(-n2c(SCC(=O)N3CCN(c4ccccc4)CC3)nnc2-c2ccncc2)cc1Cl`, in series [1] (read-out: CC50), the CC50 at 96 h amounted to 21.1 µM. In series [2], the pEC50 was 5.15 and the EC50 was 6.92 µM. The selectivity ratio in series [3] was found to be 3.
Regarding `Cc1ccc(-c2csc(-c3cccnc3)n2)cc1C`, the CC50 at 96 h in series [1] (read-out: CC50) amounted to 40.8 µM. Moreover, in series [2], the pEC50 is 5.57 and the EC50 was 2.69 µM. Also, the selectivity ratio in series [3] was 15.1.
With `O=C(NC(Cn1ccnc1)c1ccccc1)c1cccc(-n2cccn2)c1` (centres undefined), the results for the CC50 at 96 h in series [1] (read-out: CC50) and in series [1] (read-out: pCC50 (converted)) were 11.8 µM and 11.7 µM, respectively. Further, the pEC50 in series [2] is 6.52. Besides, in series [2], the EC50 is 0.257 µM. For the same molecule, the selectivity ratio in series [3] came out at 46.3.
As to `COc1ccc(S(=O)(=O)N(Cc2ccncc2)Cc2ccc(OCC(C)C)cc2)cc1OC`, the CC50 at 96 h in series [1] (read-out: CC50) is 21.7 µM. Moreover, the CC50 at 96 h in series [1] (read-out: pCC50 (converted)) was 21.9 µM. Also, in series [2], the pEC50 was 6.30 and the EC50 is 0.479 µM. Moreover, the selectivity ratio in series [3] turned out to be 45.7.
In the case of `CC1=C(C(=O)OCCc2ccccc2)C(c2ccncc2)C2=C(CC(c3ccccc3)CC2=O)N1` (centres undefined), the CC50 at 96 h in series [1] (read-out: CC50) is more than 200 µM. In series [2], the pEC50 is less than 3.70 and the EC50 was more than 200 µM.
On to `COc1ccc(N2CCN(C(=O)COc3ccc(C4CCCCC4)cc3)CC2)c([N+](=O)[O-])c1`, for which the CC50 at 96 h in series [1] (read-out: CC50) stood at 49.6 µM. The pEC50 in series [2] is 4.42. Besides, in series [3], the selectivity ratio worked out at 1.3.
Take `Cc1ccc(N2C(=O)C(CC(=O)Nc3ccccc3)N(Cc3cccnc3)C2=O)cc1` (centres undefined): the CC50 at 96 h in series [1] (read-out: CC50) is more than 200 µM. The pEC50 in series [2] is 3.72. Further, in series [3], the selectivity ratio is more than 1.
Regarding `CC(C)COc1ccc(CN(Cc2ccncc2)S(=O)(=O)c2ccc(F)c(F)c2)cc1`, the CC50 at 96 h in series [1] (read-out: CC50) amounted to 11.5 µM. In addition, in series [1] (read-out: pCC50 (converted)), the CC50 at 96 h was 11.5 µM. In addition, in series [2], the pEC50 was 6.40 and the EC50 was 0.38 µM. Moreover, the selectivity ratio in series [3] was found to be 30.6.
For the molecule `Cc1nnc(-c2cccc(-c3ccnc4[nH]ccc34)c2)s1`, the CC50 at 96 h in series [1] (read-out: CC50) was found to be 127 µM. Also, the pEC50 in series [2] was less than 3.70. In series [3], the selectivity ratio is less than 0.6.
Take `O=C(NC(Cn1ccnc1)c1ccccc1)c1csc(-c2cccs2)n1` (centres undefined): the CC50 at 96 h in series [1] (read-out: CC50) was more than 200 µM. In addition, the CC50 at 96 h in series [1] (read-out: pCC50 (converted)) was 200 µM. Further, in series [2], the pEC50 is less than 3.70 and the EC50 was more than 200 µM.
For `CC(Oc1ccc(-c2ccccc2)cc1)C(=O)Nc1ccc(S(=O)(=O)Nc2nccs2)cc1` (centres undefined), the CC50 at 96 h in series [1] (read-out: CC50) was more than 200 µM. In addition, the pEC50 in series [2] is less than 3.70.
In the case of `Clc1ccc(Cc2nn3c(CN4CCN(c5ccccc5)CC4)nnc3s2)cc1`, the CC50 at 96 h in series [1] (read-out: CC50) was more than 200 µM. In addition, the pEC50 in series [2] is less than 3.70.
In the case of `O=C(CSc1nc(-c2ccncc2)n[nH]1)N1CCN(c2ccccc2)CC1`, the CC50 at 96 h in series [1] (read-out: CC50) was more than 200 µM. Also, in series [2], the pEC50 was 4.70 and the EC50 is 20 µM. For the same molecule, in series [3], the selectivity ratio was more than 9.9.
As to `Cc1nccn1-c1ccc(Cn2ccnc2-c2cc3ccccc3[nH]c2=O)cc1`, the CC50 at 96 h in series [1] (read-out: CC50) came to 52.9 µM. In addition, in series [2], the pEC50 is 5.92. In series [3], the selectivity ratio was 43.9.
For `Nc1ncc(-c2nc(-c3cccnn3)no2)c(-c2ccccc2)n1`, in that order: 99.7 µM, less than 3.70 and less than 0.5.
With `Cn1c(SCC(=O)N2CCN(c3ccccc3)CC2)nnc1-c1ccc(Br)cc1`, the CC50 at 96 h in series [1] (read-out: CC50) was more than 200 µM. Moreover, in series [2], the pEC50 is less than 3.70 and the EC50 is more than 200 µM.
For `O=C(N/C(=C/c1cccnc1)c1nc2ccccc2[nH]1)c1cccc(Br)c1`, the CC50 at 96 h in series [1] (read-out: CC50) was 47.4 µM. The pEC50 in series [2] was 4.72. The selectivity ratio in series [3] is 2.5.
Consider `c1cncc(-c2nc(-c3cnccn3)n[nH]2)c1`, for which the CC50 at 96 h in series [1] (read-out: CC50) came out at 1.5 µM. For the same molecule, the pEC50 in series [2] was 5.47. For the same molecule, the selectivity ratio in series [3] amounted to 0.4.
In the case of `COc1ccc(N2CCN(C(=O)CN(Cc3ccccc3C)S(=O)(=O)c3ccc(Cl)cc3)CC2)cc1`, in series [1] (read-out: CC50), the CC50 at 96 h came to 73.9 µM. The CC50 at 96 h in series [1] (read-out: pCC50 (converted)) was 74.1 µM. In addition, in series [2], the pEC50 was 5.57 and the EC50 is 2.69 µM. Further, in series [3], the selectivity ratio is 27.7.
Regarding `O=C(NC(Cn1ccnc1)c1ccccc1)c1ccc(-n2cnnn2)cc1` (centres undefined), in series [1] (read-out: CC50), the CC50 at 96 h was determined as 33.6 µM. In addition, in series [1] (read-out: pCC50 (converted)), the CC50 at 96 h is 35.5 µM. In series [2], the pEC50 was 6.52 and the EC50 was 0.257 µM. In addition, the selectivity ratio in series [3] is 137.
For `COc1ccc2c(c1)cc(C(=O)NC(Cn1ccnc1)c1ccccc1)n2C` (centres undefined), the CC50 at 96 h in series [1] (read-out: CC50) worked out at 0.62 µM. The CC50 at 96 h in series [1] (read-out: pCC50 (converted)) is 0.617 µM. Further, in series [2], the pEC50 was 4.88 and the EC50 was 13.2 µM.
Turning to `N#Cc1ccc(-c2ccc(OCC(=O)N3CCN(c4cccc(Cl)c4)CC3)cc2)cc1`, the CC50 at 96 h in series [1] (read-out: CC50) was more than 200 µM. Moreover, the pEC50 in series [2] is less than 3.70.
For `Cc1ncsc1CCC(=O)NC(Cn1ccnc1)c1ccccc1` (centres undefined), in that order: more than 200 µM and less than 3.70.
Turning to `CC(=O)Nc1ccc(Cl)c(C(=O)NC(Cn2ccnc2)c2ccccc2)c1` (centres undefined), the CC50 at 96 h in series [1] (read-out: CC50) was more than 200 µM. The pEC50 in series [2] was 5.57. The selectivity ratio in series [3] is more than 72.8.
As to `O=C(CC(Nc1ccc2ccccc2c1)c1ccncc1)c1ccc(Br)cc1` (centres undefined), the CC50 at 96 h in series [1] (read-out: CC50) was more than 200 µM. Besides, the pEC50 in series [2] is 6.10. Also, the selectivity ratio in series [3] is more than 258.
For `COc1ccc(C2CC(=O)C3=C(C2)NC(C)=C(C(=O)OCCc2ccccc2)C3c2ccncc2)cc1` (centres undefined), in series [1] (read-out: CC50), the CC50 at 96 h turned out to be 19.3 µM. Moreover, in series [2], the pEC50 is 6.40 and the EC50 is 0.417 µM. In addition, in series [3], the selectivity ratio came to 46.5.
As for `Oc1ccccc1-c1n[nH]c(-c2ccccn2)n1`, the CC50 at 96 h in series [1] (read-out: CC50) is more than 200 µM. Further, the pEC50 in series [2] is less than 3.70.
Regarding `Cc1ccccc1-c1noc(-c2cccnc2)n1`, the CC50 at 96 h in series [1] (read-out: CC50) is more than 200 µM. For the same molecule, in series [2], the pEC50 is 4.73 and the EC50 is 18.6 µM. Also, the selectivity ratio in series [3] is more than 10.8.
Turning to `O=C(COc1ccc(-c2ccccc2)cc1)N1CCN(S(=O)(=O)c2ccc(F)cc2)CC1`, the CC50 at 96 h in series [1] (read-out: CC50) is more than 200 µM. Also, the CC50 at 96 h in series [1] (read-out: pCC50 (converted)) was 200 µM. In series [2], the pEC50 was less than 3.70 and the EC50 was more than 200 µM.
With `CC1Cc2ccccc2N1C(=O)CSc1nnnn1-c1ccccc1` (centres undefined), the CC50 at 96 h in series [1] (read-out: CC50) was more than 200 µM. For the same molecule, in series [2], the pEC50 is 3.96 and the EC50 was 110 µM. Moreover, the selectivity ratio in series [3] was more than 1.8.
In the case of `CC(C)COc1ccc(CN(Cc2ccncc2)S(=O)(=O)c2cccc(F)c2)cc1`, in series [1] (read-out: CC50), the CC50 at 96 h was more than 200 µM. In series [1] (read-out: pCC50 (converted)), the CC50 at 96 h was 200 µM. In series [2], the pEC50 is less than 3.70 and the EC50 is more than 200 µM.
For the molecule `c1cncc(-c2nc(-c3cccs3)no2)c1`, in series [1] (read-out: CC50), the CC50 at 96 h was found to be 66.3 µM. In series [2], the pEC50 was less than 3.70 and the EC50 was more than 200 µM. For the same molecule, the selectivity ratio in series [3] was less than 0.3.
Take `Cn1c(SCC(=O)N2CCN(c3ccccc3F)CC2)nnc1-c1cccnc1`: the CC50 at 96 h in series [1] (read-out: CC50) was 198 µM. In series [2], the pEC50 was less than 3.70 and the EC50 is more than 200 µM. In addition, the selectivity ratio in series [3] was less than 1.
Regarding `CC(C)COc1ccc(CN(Cc2ccncc2)S(=O)(=O)c2ccc(F)cc2F)cc1`, the CC50 at 96 h in series [1] (read-out: CC50) is more than 200 µM. For the same molecule, the CC50 at 96 h in series [1] (read-out: pCC50 (converted)) is 200 µM. In series [2], the pEC50 was 6.15 and the EC50 is 0.724 µM. Moreover, in series [3], the selectivity ratio was more than 274.
As to `O=C(Cn1ccnc1[N+](=O)[O-])NCc1ccccc1` [BENZNIDAZOLE], the CC50 at 96 h in series [1] (read-out: CC50) was more than 200 µM. The pEC50 in series [2] was 5.51. Further, the selectivity ratio in series [3] is more than 128.
